Experimental data from patent US10543132B2, “Absorbent article with blood modifying agent” (UNICHARM CORPORATION, priority 2011, dated 2020).

How the values were obtained:
[1] = From the text: As used herein, the term “solubility” in regard to water solubility includes cases where the sample completely dissolves in deionized water to form a homogeneous mixture, and cases where the sample is completely emulsified. As used herein, “completely” means that no mass of the sample remains in the deionized water.
[2] = Surface tension of blood containing blood modifying agent, pendant drop method (Example 6); conditions: sheep defibrinated blood; amount 0.10 mass %; 35 ° C.; without agent 62.1
Description: The surface tension of blood containing a blood modifying agent was measured by the pendant drop method, using a Drop Master500 contact angle meter by Kyowa Interface Science Co., Ltd. The surface tension was measured after adding a prescribed amount of blood modifying agent to sheep defibrinated blood, and thoroughly shaking. The measurement was accomplished automatically with a device, and the […] γ was determined by the following formula (see FIG. 4). γ=g×ρ×(de)^2×1/H The density ρ was measured at the temperatures listed in Table 5, according to JIS K 2249-1995, “Density test methods and density/mass/volume conversion tables”, “5. Vibrating density test method”. The measurement was accomplished using a DA-505 by Kyoto Electronics Co., Ltd.

[3] = at 20° C.; cited from earlier work

Row | Water solubility [1] [g] | SMILES | other results
1 | <0.05 | CCCCOC(=O)CC(CC(=O)OCCCC)(OC(C)=O)C(=O)OCCCC [Tributyl O-acetylcitrate, Tributyl O-Acetylcitrate] | 
2 | <0.05 | CCCCC(CC)C(=O)OCC(COC(=O)C(CC)CCCC)OC(=O)C(CC)CCCC (stereo not shown) [PANACET 800B] | 
3 | <0.05 | CCCCCCCC(=O)OCC(COC(=O)CCCCCCC)OC(=O)CCCCCCC [PANACET 800] | 
4 | <0.05 | CCCCC(CC)C(=O)OCC(C)(C)COC(=O)C(CC)CCCC (stereo not shown) [H-208BRS, Neopentylglycol di-2-ethylhexanoate] | 
5 |  | CCCCCCCCCCCCOC(=O)CCCCCCCCCCC [ELECTOL WE20, Ester of dodecanoic acid (C12) and dodecyl alcohol (C12)] | Surface tension (mN/m) [2]: 58.8 mN/m
6 |  | CCCCC(=O)CCCC [5-nonanone] | vapor pressure [3]: about 230 Pa
7 |  | CC(C)CCCCCCCCCCCCCCCOC(=O)CC(O)C(=O)OCCCCCCCCCCCCCCCC(C)C (stereo not shown) [Diisostearyl malate, Diisostearyl Malate] | Water solubility (g) [1]: 20< g
